Reference: US20050277190A1, “Pancreatic stem cells” (priority 2004, published 2005)
“Also recorded” adds a separate entry of the source. Ends that are not written are not given here.

Experiments:
Assay type in all cases: cell-based, mouse
[1] = tested on: YFP+ cells from islet- and ductal-derived PSC cultures; test: [Ca2+]i imaging (Fura2) of RIP-YFP+ cells from differentiated PSC colonies; settings: agent added on top of glucose; single YFP+ cells, islet- and ductal-derived PSC progeny
[2] = tested on: differentiated PSC colonies; test: Insulin release by differentiated PSC colonies (radioimmunoassay); settings: 1.5 hour incubation; for insulin release in response to high glucose plus agent: 20 mM glucose with 30 nM GLP-1, 10 mM TEA or 100 μM verapamil; for insulin release in response to agent alone: 20 mM glucose (HG) or 100 μM carbachol alone, relative to LG-KRB
Description: PSC colonies were pooled and differentiated (8 per well, 96-well Matrigel-coated plates) for 7 days as described. Twenty-four hours prior to secretion studies, the medium was changed to supplemented RPMI-1640 medium as outlined above. Differentiated PSC colonies were pre-incubated in low glucose (2.5 mM) KRB solution (LG-KRB) for 1 hour. The solution was changed to 150 μl of fresh LG-KRB and the cultures were incubated for 1.5 hours to establish the basal level of insulin release. […] Insulin was measured using an RIA kit (Linco). Insulin release during the experimental 1.5 hour incubation was compared to the level determined during the basal 1.5 hour incubation period for each individual well to obtain a percent change. The data are expressed relative to the percent change measured for the LG-KRB to LG-KRB alone condition.

PSC spheres = test: PSC sphere colony formation assay and serum-free passaging with BIO; settings: BIO included during primary serum-free sphere formation and serum-free passaging; period of 5 months
From the text: 1) Using the standard PSC sphere colony formation assay, the (commercially available) compound, BIO ((2_Z,3_E)-6-Bromoindirubin-3_-oxime) has been included. […] The GSK-3α/β protein kinases have a critical role within the Wnt-signalling pathway, with their inhibition by BIO leading to an activation of the Wnt pathway. The Wnt pathway is involved with the specification/development of multiple tissues. With BIO inclusion during the primary serum-free sphere formation and subsequent serum-free passaging, PSC spheres can be passaged indefinitely. PSC spheres have been successfully passaged, currently up to the 9th passage over a period of 5 months. The number of sphere-forming cells and resultant clonal spheres expanded (over 30-fold) during this period.
Isolated islets and ductal tissue were then incubated with trypsin (Sigma) at 37° C. and triturated with a small-borehole siliconized pipette into a single cell suspension. Viable cells were counted using Trypan Blue (Sigma) exclusion and plated at 20 cells μl^−1 or less in defined serum-free medium (SFM)^63 containing B27 (Gibco-BRL), 10 ng ml^−1 FGF2 (Sigma), 2 μg ml^−1 heparin (Sigma), and 20 ng ml^−1 EGF (Sigma) for 7-14 DIV. […] Each well was scored after plating for the presence of a single cell. […]

| Compound | effect of added agent on glucose-stimulated [Ca2+]i response [1] | insulin release in response to high glucose plus agent [2] | also measured |
| --- | --- | --- | --- |
| CC[N+](CC)(CC)CC [TEA, tetra ethyl ammonium] | augmented | augmentation of this release; also recorded: increased insulin secretion; also recorded: increased insulin release | – |
| COc1ccc(CCN(C)CCCC(C#N)(c2ccc(OC)c(OC)c2)C(C)C)cc1OC (centres unmarked) [verapamil] | – | abolishes glucose-stimulated insulin release to basal levels; also recorded: abolished the glucose-stimulated insulin release | – |
| C[N+](C)(C)CCOC(N)=O [carbachol] | – | – | insulin release in response to agent alone [2]: insulin release in response to carbachol; also recorded: secrete insulin in response to carbachol; insulin release in response to agent alone ([2]; listed as Carbachol): increased insulin release |
| O=C1Nc2cc(Br)ccc2/C1=C1/Nc2ccccc2/C1=N\O [BIO, (2_Z,3_E)-6-Bromoindirubin-3_-oxime] | – | – | expansion of the number of sphere-forming cells and resultant clonal spheres (PSC spheres): over 30 fold |
| glucagon-like peptide-1 (HAEGTFTSDVSSYLEGQAAKEFIAWLVKGR; ends and bridges not checked; UniProt P01275 98-127, looked up) [GLP-1, physiological secretagogue known to stimulate β-cells in a glucose-dependent manner] | augmented | augmentation of this release; also recorded: increased insulin secretion; also recorded: increased insulin release | – |
